Laboratory results: US20130288978A1, “DERMATOPONTIN-ACTIVATING PEPTIDES AND COSMETIC COMPOSITIONS INCLUDING SAME” (ISP INVESTMENTS INC., priority 2010, published 2013)
Entries after “also recorded” stand apart in the source; their conditions may differ. Ends that are not written are not given here.

Legend:
dermatopontin [1] = test: Dermatopontin immunofluorescence labeling in normal human fibroblast cultures; type: cell-based; conditions: normal human fibroblasts, peptide 10^−6 M once daily, 24 or 48 hours, vs control conditions
Description: (§1) The objective of this study is to determine the influence of the SEQ ID No. 5 peptide and of the SEQ ID No. 9 peptide on the expression of dermatopontin in fibroblasts. For this, specific immunofluorescence labelings were performed on normal human fibroblast cultures and on skin kept in culture ex vivo.
Normal human fibroblasts are cultivated for 24 or 48 hours and treated once daily with a 10^−6M solution of peptide SEQ ID No. 5 or of peptide SEQ ID No. 9. The cells are then washed and fixed with 3.7% formaldehyde for 10 minutes at ambient temperature.
(§2) The fixed cells or the sections are incubated in the presence of a specific rabbit dermatopontin polyclonal antibody (Proteintech group, Ref: 10537-1-AP), then a secondary antibody, coupled to a fluorescent marker. After mounting in an ad hoc medium, the cells are then examined with an Epi-fluorescence microscope (Nikon Eclipse E600 microscope).

dermatopontin [2] = test: Dermatopontin immunofluorescence labeling in human skin kept in culture ex vivo; type: cell-based; conditions: 10^−6 M solution applied topically, 24 or 48 hours
Description: as §1
The human skin samples are placed in culture at the air/liquid interface. A 10^−6M solution of peptide SEQ ID No. 5 or of peptide SEQ ID No. 9 is applied topically, then the samples are incubated for 24 hours or 48 hours. These skin samples are then fixed with formaldehyde then embedded in paraffin or fixed with OCT, by freezing at −20° C. Sections of 3 to 4 μm are then produced (6 μm for the cold sections). The immunolabeling of the samples embedded in paraffin is performed after unmasking specific sites. The immunolabeling of samples embedded in OCT is performed after fixation at 37° C. and with cold acetone.
as §2

NHEK = test: Ultrastructure (transmission electron microscopy) of keratinocytes in culture; type: cell-based, human; conditions: 10^−6 M, 48 hours, vs untreated control
Description: (§3) The objective of this study is to observe the subcellular structures of keratinocytes and fibroblasts treated by the SEQ ID No. 5 peptide at 10^−6 M.
(§4) NHEK or fibroblasts are cultivated in a dish or in a Transwell system, or skins cultivated ex vivo are treated with a 10^−6 M solution of SEQ ID No. 5 peptide for 48 hours (the medium is changed every 24 hours). The skin cells or samples are washed with PBS, then are fixed by Karnosky hypertonic fixation (4% paraformaldehyde, 5% glutaraldehyde in a 0.08M phosphate buffer), 1 hour at ambient temperature, then 24 hours at 4° C. The cells are detached from the substrate by scraping, centrifuged for 5 minutes at 1000 rpm at 4° C. The supernatant is removed and a 0.1 M sodium cacodylate buffer is deposited on the pellet. The cells are mixed with 2% agar then post-fixed by osmium tetroxide for 1 hour. The specimens are then dehydrated by successive passages in an alcohol series (50 to 100%). The skin cells or samples are then coated with a resin. The polymerization is performed for around 12 hours at 60° C. Semi-fine sections of 0.5 μm are performed with the ultra-microtome. The sections are deposited on a subbed slide under heat then stained with toluidine blue. The slides are then dehydrated again and mounted in a suitable medium. […]

fibroblasts = test: Ultrastructure (transmission electron microscopy) of fibroblasts in culture; type: cell-based; conditions: 10^−6 M, 48 hours
Description: as §3, §4

skins cultivated ex vivo = test: Ultrastructure (transmission electron microscopy) of skins cultivated ex vivo; type: cell-based; conditions: ex vivo skin cultures, 10^−6 M, 48 hours
Description: as §3, §4

fibronectin [3] = test: Fibronectin immunofluorescence labeling in human dermal fibroblast cultures; type: cell-based; conditions: human dermal fibroblasts, 10^−6 M once daily, vs control cells
Description: (§5) The objective of this study is to determine the influence of the SEQ ID No. 5 peptide on the expression of fibronectin, a protein of the extracellular matrix synthesized by the fibroblasts. For this, specific immunofluorescence labelings were performed on fibroblast cultures and on ex vivo skin cultures.
Human dermal fibroblasts in culture are treated once daily with a 10^−6 solution M of SEQ ID No. 5 peptide (the medium containing the active agent is changed every 24 hours). The cells are then washed and fixed with 3.7% formaldehyde for 10 minutes at ambient temperature.
(§6) The fixed cells or the sections are incubated in the presence of a specific rabbit fibronectin polyclonal antibody (Sigma, Ref: F-3648), then a secondary antibody, coupled with a fluorescent marker. The cells are then examined with the Epi-fluorescence microscope (Nikon Eclipse E600 microscope).

fibronectin [4] = test: Fibronectin immunofluorescence labeling in ex vivo human skin cultures; type: cell-based; conditions: 10^−6 M applied topically, 24 or 48 hours
Description: as §5
The human skin samples are placed in culture at the air/liquid interface. A 10^−6 M solution SEQ ID No. 5 peptide or SEQ ID No. 9 peptide is to be applied topically, then the samples are incubated for 24 or 48 hours. These skin samples are then fixed with formaldehyde, then embedded in paraffin or fixed with OCT by freezing at −20° C. Sections of 3 to 4 μm are then produced (6 μm for cold sections). The immunolabeling of the samples embedded in paraffin is performed after unmasking specific sites. The immunolabeling of the samples embedded in OCT is performed after fixation at 37° C. and with cold acetone.
as §6

collagen I [5] = test: Collagen I immunofluorescence labeling in normal human fibroblast cultures; type: cell-based; conditions: 10^−6 M once per day, 24 or 48 hours, vs control conditions
Description: (§7) The objective of this study is to determine the influence of the SEQ ID No. 5 peptide on the expression of molecules of the dermal extracellular matrix. For this, the expression of collagens I and III in human fibroblasts obtained from the dermis was studied.
(§8) Normal human fibroblasts are cultivated for 24 or 48 hours and treated once per day with a 10^−6M solution of SEQ ID No. 5 peptide or SEQ ID No. 9 peptide. The cells are then washed and fixed with formaldehyde at 3.7% for 10 minutes at ambient temperature.
(§9) The fixed cells or sections are incubated in the presence of a specific rabbit collagen I polyclonal antibody (Rockland, Ref: 600-401-103) or a specific rabbit collagen III polyclonal antibody (Rockland, Ref: 600-401-105), then a secondary antibody coupled to a fluorescent marker. After mounting in an ad hoc medium, the cells are then examined with the Epi-fluorescence microscope (Nikon Eclipse E600 microscope).

collagen I [6] = test: Collagen I immunofluorescence labeling in ex vivo human skin sections; type: cell-based; conditions: 10^−6 M applied topically, 24 or 48 hours, vs control conditions
Description: (§10) The human skin samples are placed in culture at the air/liquid interface. A 10^−6M solution of SEQ ID No. 5 peptide or SEQ ID No. 9 peptide is applied topically, then the samples are incubated for 24 hours or 48 hours. These skin samples are then fixed with formaldehyde, then embedded in paraffin or fixed with OCT by freezing at −20° C. Sections of 3 to 4 μm are then produced (6 μm for cold sections). The immunolabeling of samples embedded in paraffin is performed after unmasking specific sites. The immunolabeling of the samples embedded in OCT is performed after fixation at 37° C. and with cold acetone.
as §9

collagen III [7] = test: Collagen III immunofluorescence labeling in normal human fibroblast cultures; type: cell-based; conditions: 10^−6 M once per day, 24 or 48 hours, vs control conditions
Description: as §7, §8, §9

collagen III [8] = test: Collagen III immunofluorescence labeling in ex vivo human skin sections; type: cell-based; conditions: 10^−6 M applied topically, 24 or 48 hours, vs control conditions
Description: as §10, §9

[9] = system: elastic fibers present in the dermis; test: Elastic fiber staining (Elastika van Gieson) of ex vivo human skin irradiated by UVA; type: cell-based; conditions: 10^−6 M topically 48 hours before UVA 5 J/cm^2, vs untreated irradiated controls
Description: The objective of this study is to determine the influence of the SEQ ID No. 5 peptide on the elastic fibers present in the dermis. To do this, specific staining of the elastic fibers was performed on skin samples cultivated ex vivo.
Human skin samples are placed in culture at the air/liquid interface. A 10^−6 M solution of SEQ ID No. 5 peptide is applied topically, then the samples are incubated for 48 hours before being irradiated by UVA at 5 J/cm^2. Untreated irradiated controls are produced in parallel.
These skin samples are then fixed with formaldehyde, then embedded in paraffin. Sections of 4 μm are then produced. These skin sections are successively removed from the paraffin, then rehydrated in different xylene and alcohol baths. the elastin fibers are stained using an Elastika van Gieson staining kit (VWR, Ref: 1.15974). The stained skin sections are dehydrated then mounted in the Eukitt mounting medium and observed under a microscope.

[10] = system: normal human keratinocytes (NHEK); test: Ibidi in vitro healing model (gap filling), keratinocytes; type: cell-based
From the text: (§11) The objective of this study is to determine the regenerating effect of the SEQ ID No. 5 peptide on dermal fibroblasts and normal human keratinocytes (NHEK). To do this, the Ibidi in vitro healing model (Integrated Bio Diagnostics, Munich, Germany) was used.
(§12) This test consists of maintaining a cell-free area at the middle of a cell layer and of evaluating the time taken by the cells arranged on either side of the “scar” to migrate or proliferate and fill the gap. The self-adhesive silicone culture inserts are placed at the base of a well of a culture plate. These inserts have the special feature of being comprised of two distinct chambers separated by an impermeable membrane with a thickness of 500 μm. Each of the two chambers is seeded with cells of the same cell type and cultivated until confluency. The insert is then removed with sterile tweezers, creating an acellular area 400 μm wide between the two cell layers. The cells are then treated with a 10^−6 M or a 3×10^−6M solution of SEQ ID No. 5 peptide added to the culture medium, with renewal of the peptide every 24 hours. Phase-contrast microscopy observations (Olympus CK40 microscope X5 connected to an Olympus E-510 camera) were performed at different times (0, 6, 24, 30 and 48 hours) until the proliferation and migration process results in the filling of the gap.

dermal fibroblasts = test: Ibidi in vitro healing model (gap filling), fibroblasts; type: cell-based, human
From the text: as §11, §12

Arg-Glu-Trp-Gln-Phe-Tyr-Cys(Cys)-(NH2) [SEQ ID No. 5]
expression of dermatopontin (immunofluorescence) (dermatopontin [1]): more intense fluorescence; also recorded: very substantially stimulate the expression of dermatopontin
expression of dermatopontin (immunofluorescence) (dermatopontin [2]): more intense fluorescence at the dermis
intercellular contacts between keratinocytes (ultrastructure) (NHEK; cultures in a TRANSWELL system): more cohesive
organelles / mitochondria in keratinocytes (ultrastructure) (NHEK; keratinocytes in culture): enrichment in organelles, and in particular mitochondria; also recorded: increase in the density of mitochondria
caveolar bodies, rough endoplasmic reticulum and Golgi apparatus (ultrastructure) (fibroblasts; vs control cells): substantially more developed
secretion / synthesis of components of the extracellular matrix (ultrastructure) (fibroblasts; vs untreated control cells): more intense secretion of components of the extracellular matrix; also recorded: increase in the synthesis of components of the extracellular matrix
cellular contacts between the cells of the basal layer (ultrastructure) (skins cultivated ex vivo): narrower cellular contacts between the cells of the basal layer; also recorded: increases the intercellular contacts of the basal keratinocytes
expression of fibronectin (immunofluorescence) (fibronectin [3]): more intense cytoplasmic fluorescence; also recorded: very substantially stimulates the expression of fibronectin
densification of the area supporting the dermoepidermal junction (fibronectin immunofluorescence) (fibronectin [4]): stimulates the densification of the area supporting the dermoepidermal junction
expression of collagen I (immunofluorescence) (collagen I [5]): more intense fluorescence; also recorded: increases the expression of collagen I
expression of collagen I (immunofluorescence) (collagen I [6]): more intense fluorescence
expression of collagen III (immunofluorescence) (collagen III [7]): more intense fluorescence; also recorded: increases the expression
expression of collagen III (immunofluorescence) (collagen III [8]): more intense fluorescence
degradation of the elastic fibers after UV irradiation [9]: less degradation of the elastic fibers; also recorded: preserves the elastic fibers
organization of the elastic fibers after UV irradiation [9]: better preservation of the organization of the elastic fibers
gap filling / proliferation and migration by comparison with control conditions ([10]; NHEK cultivated in the presence of the peptide): filled the gap faster; also recorded: stimulates the proliferation and migration
time to total filling of the gap ([10]; human keratinocytes, 10^−6 M, 400 μm gap, control gap not yet filled at the same time): 30 h
dose dependence of gap filling ([10]; keratinocytes, 3×10^−6 M compared with 10^−6 M): the gap fills faster
gap filling / proliferation and migration by comparison with control conditions (dermal fibroblasts; fibroblasts cultivated in the presence of the peptide): filled the gap faster; also recorded: stimulates the proliferation and migration
dose dependence of gap filling (dermal fibroblasts; fibroblasts, 3×10^−6 M compared with 10^−6 M): the gap fills faster
time to total filling of the gap (dermal fibroblasts; human fibroblasts, 10^−6 M, 400 μm gap, control gap not yet filled at the same time): 48 h

Asp-Arg-Glu-Trp-Gln-Phe-Tyr-Cys-NH2 (DREWQFYC-NH2) [SEQ ID No. 9]
expression of dermatopontin (immunofluorescence) (dermatopontin [1]): more intense fluorescence; also recorded: very substantially stimulate the expression of dermatopontin
expression of dermatopontin (immunofluorescence) (dermatopontin [2]): more intense fluorescence at the dermis
